Measured values reported in PubChem BioAssay AID1259411 (Chemical Carcinogenesis Research Information System (CCRIS), 2018).
Activity calls are given as the source filed them. How the calls were made is not given here.

Tested on: rodent carcinogenicity bioassays, tumor incidence
Test: CCRIS carcinogenicity studies
In short: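 Archive of carcinogenicity, mutagenicity, tumor promotion and tumor inhibition results drawn from journals, NCI reports and other sources, expert-reviewed; covers 1985-2011 and is no longer updated.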

For `CCN(CCO)N=O`, the carcinogen call (Species: HAMSTER, Strain/Sex: SYRIAN/MALE, Route: ORAL, Dose: 0, 1000, 2000 PPM IN DIET FOR 2 WK (STUDY DURATION: 30 WK), Dose: 0, 1000, 2000 PPM IN DIET FOR 2 WK (STUDY DURATION: 30 WK)) was “inactive; negative”, the carcinogen call (Species: MOUSE, Strain/Sex: BALB/C/MALE, Route: ORAL, Dose: 0, 1000, 2000 PPM IN DRINKING WATER FOR 2 WK (STUDY DURATION: 52 WK), Dose: 0, 1000, 2000 PPM IN DRINKING WATER FOR 2 WK (STUDY DURATION: 52 WK), Tumor Site: Type of Lesion: LUNG: TUMOR) was “active; positive” and the carcinogen call (Species: MOUSE, Strain/Sex: BALB/MALE, Route: ORAL, Dose: 0, 1000, 2000 PPM IN DIET FOR 2 WK (STUDY DURATION: 30 WK), Dose: 0, 1000, 2000 PPM IN DIET FOR 2 WK (STUDY DURATION: 30 WK), Tumor Site: Type of Lesion: LUNG: TUMOR) was “active; positive”. The carcinogen call (Species: MOUSE, Strain/Sex: STRAIN-A/MALE, Route: ORAL, Dose: 0, 1000, 2000 PPM IN DIET FOR 2 WK (STUDY DURATION: 30 WK), Dose: 0, 1000, 2000 PPM IN DIET FOR 2 WK (STUDY DURATION: 30 WK), Tumor Site: Type of Lesion: LIVER: TUMOR, LUNG: TUMOR) was “active; positive”, the carcinogen call (Species: RAT, Strain/Sex: F344/MALE, Route: ORAL, Dose: 0, 1000 PPM IN DIET FOR 2 WK (STUDY DURATION: 30 WK)) was “inactive; negative” and the carcinogen call (Species: RAT, Strain/Sex: WISTAR/FEMALE, Route: ORAL, Dose: 0, 1000 PPM IN DIET FOR 2 WK (STUDY DURATION: 30 WK), Tumor Site: Type of Lesion: KIDNEY: RENAL CELL TUMOR) was “active; positive”. For the same compound, the carcinogen call (Species: RAT, Strain/Sex: WISTAR/MALE, Route: ORAL, Dose: 0, 1000, 2000 PPM IN DRINKING WATER FOR 2 WK (STUDY DURATION: 52 WK), Dose: 0, 1000, 2000 PPM IN DRINKING WATER FOR 2 WK (STUDY DURATION: 52 WK), Tumor Site: Type of Lesion: KIDNEY: TUMOR) was “active; positive”, the carcinogen call (Species: RAT, Strain/Sex: WISTAR/MALE, Route: ORAL, Dose: 0, 1000 PPM IN DIET FOR 2 WK (STUDY DURATION: 30 WK), Tumor Site: Type of Lesion: KIDNEY: RENAL CELL TUMOR, LIVER: TUMOR) was “active; positive” and the carcinogen call (Species: RAT, Strain/Sex: WISTAR/MALE, Route: ORAL, Dose: 0, 1000 PPM IN DRINKING WATER FOR 2 WK (STUDY DURATION: 30 WK), Tumor Site: Type of Lesion: KIDNEY: RENAL CELL TUMOR) was “active; positive”.
`CNC(=O)Oc1cc(C)c(N(C)C)c(C)c1` was tested, and the carcinogen call (Species: MOUSE, Strain/Sex: B6C3F1/FEMALE, Route: ORAL, Dose: 0, 68, 135 PPM IN DIET, TWA, Dose: 0, 68, 135 PPM IN DIET, TWA) was “inactive; negative”, the carcinogen call (Species: MOUSE, Strain/Sex: B6C3F1/MALE, Route: ORAL, Dose: 0, 327, 654 PPM IN DIET, TWA, Dose: 0, 327, 654 PPM IN DIET, TWA) was “inactive; negative” and the carcinogen call (Species: RAT, Strain/Sex: OSBORNE-MENDEL/FEMALE, Route: ORAL, Dose: 0, 339, 678 PPM IN DIET, TWA, Dose: 0, 339, 678 PPM IN DIET, TWA) was “inactive; negative”. The carcinogen call (Species: RAT, Strain/Sex: OSBORNE-MENDEL/MALE, Route: ORAL, Dose: 0, 209, 418 PPM IN DIET, TWA, Dose: 0, 209, 418 PPM IN DIET, TWA) was “inactive; negative”.
In the case of `O=S(=O)(O)c1ccc(N=Nc2cc(S(=O)(=O)O)c3ccccc3c2O)c2ccccc12`, the carcinogen call (Species: MOUSE, Strain/Sex: B6C3F1/FEMALE, Route: ORAL, Dose: 0, 3000, 6000 PPM IN DIET, Dose: 0, 3000, 6000 PPM IN DIET) is reported as “inactive; negative”, the carcinogen call (Species: MOUSE, Strain/Sex: B6C3F1/MALE, Route: ORAL, Dose: 0, 3000, 6000 PPM IN DIET, Dose: 0, 3000, 6000 PPM IN DIET) is reported as “inactive; negative” and the carcinogen call (Species: RAT, Strain/Sex: F344/FEMALE, Route: ORAL, Dose: 0, 12500, 25000 PPM IN DIET, Dose: 0, 12500, 25000 PPM IN DIET) is reported as “inactive; negative”. The carcinogen call (Species: RAT, Strain/Sex: F344/MALE, Route: ORAL, Dose: 0, 6000, 12500 PPM IN DIET, Dose: 0, 6000, 12500 PPM IN DIET) was “inactive; negative”, the carcinogen call (Species: RAT, Strain/Sex: WISTAR/FEMALE, Route: ORAL, Dose: 0, 100, 400, 1200 MG/KG/D IN BASAL DIET TO PUPS OF PARENTS EXPOSED TO THE SAME DOSE LEVELS FOR 9 WK PRIOR TO MATING AND, Dose: 0, 100, 400, 1200 MG/KG/D IN BASAL DIET TO PUPS OF PARENTS EXPOSED TO THE SAME DOSE LEVELS FOR 9 WK PRIOR TO MATING AND) was “inactive; negative” and the carcinogen call (Species: RAT, Strain/Sex: WISTAR/MALE, Route: ORAL, Dose: 0, 100, 400, 1200 MG/KG/D IN BASAL DIET TO PUPS OF PARENTS EXPOSED TO THE SAME DOSE LEVELS FOR 9 WK PRIOR TO MATING AND, Dose: 0, 100, 400, 1200 MG/KG/D IN BASAL DIET TO PUPS OF PARENTS EXPOSED TO THE SAME DOSE LEVELS FOR 9 WK PRIOR TO MATING AND) was “inactive; negative”.
In the case of `O[C@H]1[C@@H]2O[C@@H]2c2c(ccc3cc4ccc5ccccc5c4nc23)[C@@H]1O`, the carcinogen call (Species: MOUSE, Strain/Sex: CD-1/FEMALE, Route: INTRAPERITONEAL, Dose: 0, 175 NMOL (TOTAL DOSE) ADMINISTERED AS 1/7 OF DOSE WITHIN 24 HR AFTER BIRTH, 2/7 OF DOSE AT 8 D OLD, 4/7 OF DOSE AT 15, Tumor Site: Type of Lesion: LUNG: TUMOR) is reported as “active; positive” and the carcinogen call (Species: MOUSE, Strain/Sex: CD-1/MALE, Route: INTRAPERITONEAL, Dose: 0, 175 NMOL (TOTAL DOSE) ADMINISTERED AS 1/7 OF DOSE WITHIN 24 HR AFTER BIRTH, 2/7 OF DOSE AT 8 D OLD, 4/7 OF DOSE AT 15, Tumor Site: Type of Lesion: LIVER: TUMOR) is reported as “active; positive”.
In the case of `NC(N)=S`, the carcinogen call (Species: RAT, Route: ORAL, Tumor Site: Type of Lesion: LIVER, THYROID GLAND, EAR (ZYMBAL GLAND), Tumor Site: Type of Lesion: LIVER, THYROID GLAND, EAR (ZYMBAL GLAND)) is reported as “active; positive”.
